According to patent publication US12674204B2, “Method for generating retinal pigment epithelium (RPE) cells from induced pluripotent stem cells (iPSCs)” (THE UNITED STATES OF AMERICA, as represented by the …, priority 2013, dated 2026):

Experiments:
Format in all cases: cell-based, human
[1] = test system: iPSC-derived RPE cells; test: Sensitivity of iPSC-derived RPE cells to proteotoxic stressors in 384-well plates; settings: conc. 10 μM, signals measured four days after the treatment, FIG. 29
Protocol: FIG. 29 is a bar graph showing the sensitivity of iPSC-derived RPE cells to various proteotoxic stressors. RPE cells differentiated from the reporter iPS cell line were grown in 384-well plates and treated with indicated stressors (conc. 10 μM). […] signals were measured four days after the treatment.

[2] = test system: iPSC-derived RPE; test: Intracellular calcium measurements and electrophysiology of iPSC-derived RPE monolayers
Protocol: Intracellular Calcium Measurements and Electrophysiology: To assess calcium signaling in the RPE cells: ATP (200 μM; Sigma) and Cyclopiazonic Acid (CPA; 10 μM; EMD Millipore); (see Maminishkis et al., Invest. Ophthal. Vis. Sci. 47(8):3612-3624, 2006); Quinn et al., Invest. Ophthal. Vis. Sci. 33(13):3513-3527, 1992).
(§1) Calomel electrodes in series with Ringer solutions and agar bridges were used to measure the transepithelial potential (TEP). The signals from intracellular microelectrodes were referenced to the basal bath to measure the apical and basal membrane potentials, VA and VB, where TEP=VB−VA. The total transepithelial resistance (Rt), and the ratio of the apical to basolateral membrane resistance (RA/RB) were obtained by passing 2-4 μA current pulses (peak to peak) across the tissue and measuring the resultant changes in TEP, VA and VB. See Maminishkis et al. supra and Quinn et al., supra for details.

[3] = test system: iPSC derived retinal pigment epithelial cells; test: Aphidicolin treatment of iPSC-derived RPE: polarization, electrophysiology and phenotype
Description: as §1
Aphidicolin is a reversible inhibitor of eukaryotic nuclear DNA replication that blocks the cell cycle at early S phase. Its structure is that of a tetracyclic small molecule. […] It causes committed RPE cells to further mature and form fully-differentiated and highly polarized tissue monolayers (see FIGS. 30-31). Aphidicolin is dissolved in fourth medium and RPE cells are cultured in it for 6-8 weeks before analysis is done.

[4] = test system: iPSCs; test: Quantitative gene expression of Pax6 and Mitf during eye-field/optic vesicle differentiation; settings: 50 ng/ml Noggin with dual inhibition of WNT pathway and inhibition of FGF pathway
Protocol: After 48 hours of floating EB cultures they are plated onto MATRIGEL® coated plates in RDM medium. It was investigated whether the number of EBs plated/well affects differentiation of iPSCs into RPE. […] RDM medium was used for 3 weeks with change of medium on cells every Monday, Wednesday, and Friday Inhibition of Nodal, BMP, and WNT pathways can be important for differentiation of stem cells into eye-field cells. To inhibit the nodal pathway, the inhibitor SB431542 was used. To inhibit the activity of BMP pathway, various concentrations of Noggin, a BMP inhibitor, were tested. For WNT pathway inhibition, a combination of biological Wnt inhibitor DKK1 and a small molecule inhibitor of the WNT pathway CK1-7 were used.
Results have shown that inhibition of FGF signaling is important for RPE development. Therefore, the activity of FGF signaling pathway was modulated by either changing its concentration or/and by adding FGF inhibitor (PD 0325901) to the medium. The results were scored weekly by quantitative gene expression measurements of two transcription factors Pax6 and Mitf which are the master regulators of RPE differentiation (FIGS. 8-13). In addition, GFP expression was scored after six weeks as a direct measure of induction of RPE cells (FIG. 14).

[5] = test system: reporter iPSC line; test: GFP reporter signal / FACS analysis of RPE differentiation from reporter iPSC line; settings: NAW versus NA, FIG. 17
Description: To optimize the protocol for iPSC to RPE differentiation, a reporter iPSC line was created. This reporter line constitutively expresses a red fluorescent protein, whose expression is controlled by ubiquitin gene promoter. The reporter iPSC line also expresses a green fluorescent protein (GFP), specifically when differentiated in to RPE lineage (FIG. 1-3). The RPE-specific enhancer of the gene Tyrosinase controls GFP expression in this iPSC line (FIG. 1). The first goal was to confirm that the GFP expression truly represents RPE lineage. To achieve this, iPSC line were differentiated using published differentiation protocols and characterized those differentiated cells using molecular and physiological assays. These assays are disclosed in FIGS. 22-24. FIG. 2 describes a simple schematic drawing of iPSC-RPE differentiation. When the reporter iPSC were differentiated into RPE, approximately 28 days into differentiation, GFP positive cells are present (FIG. 3A). […] GFP positive and negative cells were sorted by flow cytometry and the expression of several RPE-specific genes was analyzed, shown in FIG. 4.
Activin A induces RPE differentiation from ES cells. […] When quantified by FACS analysis, NA treatment produced only 22% GFP positive cells, whereas NAW treatment produced 52% GFP positive cells (FIG. 17, bottom panel).

[6] = test system: iPSCs; test: RPE differentiation from iPSCs scored by pigmented cells
Protocol: Transfer cells to Retinal Media (RM) plus Nicotinamide, Activin, and Wnt3a (NAW). Change media every other day (eg. Mon, Wed, and Fri) for 3 weeks.
Next, the effect of the concentration of knockout serum replacement (KSR) on RPE differentiation was tested.
Activin A induces RPE differentiation from ES cells. In animal models, canonical WNT (WNT3a) is important for RPE differentiation. It was hypothesized that a combination of activin A and WNT3a would be effective for the induction of RPE differentiation from iPSCs. A combination of these two factors was tested at the optic vesicle stage. Cells were moved from the RDM medium to medium containing either activin A (NA) only or activin A plus WNT3a (NAW). […] Because this differentiation process was started with the reporter iPSC lines, the increase in the number of RPE cell was confirmed by comparing the GFP signal between the two treatments. […] When quantified by FACS analysis, NA treatment produced only 22% GFP positive cells, whereas NAW treatment produced 52% GFP positive cells (FIG. 17, bottom panel).

[7] = aphidicolin treated RPE cells, FIG. 31

O=CC[C@@H](O)[C@H](O)[C@H](O)CO [2-Deoxy-D-Glucose]
effect on RPE phenotype (GFP signal) [1]: affected RPE phenotype

CNc1ccc2oc(C[C@H]3O[C@@]4(CC[C@H]3C)O[C@H]([C@H](C)C(=O)c3ccc[nH]3)[C@H](C)C[C@H]4C)nc2c1C(=O)O [A23187]
effect on RPE phenotype (GFP signal) [1]: affected RPE phenotype

Nc1ncnc2c1ncn2[C@@H]1O[C@H](COP(=O)(O)OP(=O)(O)OP(=O)(O)O)[C@@H](O)[C@H]1O [ATP]
intracellular calcium response ([2]; apical application, FIG. 26C): typical bi-phasic response
basolateral membrane potential response ([2]; applied to the apical membrane, FIG. 26D): significantly depolarizes the basolateral membrane

C[C@@]1(CO)[C@H](O)CC[C@@]2(C)[C@H]1CC[C@H]1C[C@@H]3C[C@@]12CC[C@]3(O)CO [Aphidicolin]
membrane potential [3, 7]: higher
physiological responses (hyperpolarization to low potassium or ATP on the apical side) [3, 7]: better physiological responses
transepithelial resistance [3, 7]: higher
apical process / polarization of RPE cells ([3]; compared to non-treated cells, FIG. 30): more extensive apical process
RPE phenotype of iPS cell derived RPE on artificial membranes/scaffolds ([3]; cultured 6-8 weeks in fourth medium with aphidicolin): improves their RPE phenotype

C/C=C(/C)C(=O)O[C@H]1C(C)=C2[C@H]([C@@H]1OC(=O)CCCCCCC)[C@@](C)(OC(C)=O)C[C@H](OC(=O)CCC)[C@@]1(O)[C@H]2OC(=O)[C@@]1(C)O [Thapsigargin]
effect on RPE phenotype (GFP signal) [1]: affected RPE phenotype

B1: Noggin: a BMP inhibitor, protein encoded by the NOG gene (protein, UniProt Q13253 28-232, looked up)
Noggin: QHYLHIRPAPSDNLPLVDLIEHPDPIFDPKEKDLNETLLRSLLGGHYDPGFMATSPPEDRPGGGGGAAGGAEDLAELDQLLRQRPSGAMPSEIKGLEFSEGLAQGKKQRLSKKLRRKLQMWLWSQTFCPVLYAWNDLGSRFWPRYVKVGSCFSKRSCSVPEGMVCKPSKSVHLTVLRWRCQRRGGQRCGWIPIQYPIISECKCSC
expression of Pax6 and Mitf during the three weeks [4]: significantly and progressively improve the expression of Pax6 and Mitf

B2: WNT3a: canonical WNT signaling regulator (protein, UniProt P56704 19-352, looked up)
Protein Wnt-3a: SYPIWWSLAVGPQYSSLGSQPILCASIPGLVPKQLRFCRNYVEIMPSVAEGIKIGIQECQHQFRGRRWNCTTVHDSLAIFGPVLDKATRESAFVHAIASAGVAFAVTRSCAEGTAAICGCSSRHQGSPGKGWKWGGCSEDIEFGGMVSREFADARENRPDARSAMNRHNNEAGRQAIASHMHLKCKCHGLSGSCEVKTCWWSQPDFRAIGDFLKDKYDSASEMVVEKHRESRGWVETLRPRYTYFKVPTERDLVYYEASPNFCEPNPETGSFGTRDRTCNVSSHGIDGCDLLCCGRGHNARAERRREKCRCVFHWCCYVSCQECTRVYDVHTCK
number of GFP positive cells in differentiating iPSC cultures [5]: significantly increases the number of GFP positive cells
number of pigmented cells per dish ([6]; activin A plus WNT3a (NAW) versus activin A only (NA), FIG. 16): significantly increased the number of pigmented cells per dish
RPE differentiation efficiency ([6]; addition of WNT3a to Retinal Media with Nicotinamide and Activin): significantly increased the RPE differentiation efficiency
